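How tested: cells in 96-well plates exposed to compound for 48 hours at five concentrations. GI50: concentration for 50% inhibition of growth. TGI is the concentration that stops growth completely.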
Tests used:
Experiment in all cases: NCI-60 cell line screen, 48 h
IGROV1 ovarian = test system: IGROV1 ovarian
NCI-H226 lung = test system: NCI-H226 lung
U251 CNS = test system: U251 CNS
SW-620 colon = test system: SW-620 colon
SK-MEL-2 melanoma = test system: SK-MEL-2 melanoma
HCC-2998 colon = test system: HCC-2998 colon
T-47D breast = test system: T-47D breast
MDA-MB-231 breast = test system: MDA-MB-231 breast
NCI-H460 lung = test system: NCI-H460 lung
SNB-19 CNS = test system: SNB-19 CNS
M14 melanoma = test system: M14 melanoma
SK-MEL-28 melanoma = test system: SK-MEL-28 melanoma
MCF7 breast = test system: MCF7 breast
UO-31 renal = test system: UO-31 renal
HS 578T breast = test system: HS 578T breast
RXF 393 renal = test system: RXF 393 renal
SNB-75 CNS = test system: SNB-75 CNS
EKVX NSCLC = test system: EKVX NSCLC
NCI-H522 lung = test system: NCI-H522 lung
786-0 renal = test system: 786-0 renal
NCI/ADR-RES ovarian = test system: NCI/ADR-RES ovarian
TK-10 renal = test system: TK-10 renal
CCRF-CEM leukemia = test system: CCRF-CEM leukemia
SF-268 CNS = test system: SF-268 CNS
COLO 205 colon = test system: COLO 205 colon
HCT-116 colon = test system: HCT-116 colon
MDA-MB-435 = test system: MDA-MB-435
UACC-257 melanoma = test system: UACC-257 melanoma

With `O=C(CSc1nc2sc3c(c2c(=O)n1-c1ccc(Cl)cc1)CCCC3)NNC(=O)Nc1cccc(C(F)(F)F)c1` the GI50 (IGROV1 ovarian) was 5.33 µM, the TGI (IGROV1 ovarian) was 25 µM and the GI50 (NCI-H226 lung) was 2.78 µM. The TGI (NCI-H226 lung) was 8.31 µM, the GI50 (U251 CNS) was 2 µM and the TGI (U251 CNS) was 4.39 µM. For the same compound, the GI50 (SW-620 colon) was 3.49 µM, the TGI (SW-620 colon) was 15 µM and the GI50 (SK-MEL-2 melanoma) was 2.21 µM. For the same compound, the TGI (SK-MEL-2 melanoma) was 5.75 µM, the GI50 (HCC-2998 colon) was 2.99 µM and the TGI (HCC-2998 colon) was 11.9 µM. The GI50 (T-47D breast) was 2.29 µM, the TGI (T-47D breast) was 7.14 µM and the GI50 (MDA-MB-231 breast) was 2.76 µM. The TGI (MDA-MB-231 breast) was 8.65 µM, the GI50 (NCI-H460 lung) was 3.12 µM and the TGI (NCI-H460 lung) was 10.5 µM. It also gave a GI50 (SNB-19 CNS) of 3.97 µM, a TGI (SNB-19 CNS) of 77.3 µM and a GI50 (M14 melanoma) of 3.2 µM. The TGI (M14 melanoma) was 11.3 µM, the GI50 (SK-MEL-28 melanoma) was 3.69 µM and the TGI (SK-MEL-28 melanoma) was 14 µM. It also gave a GI50 (MCF7 breast) of 2.4 µM, a TGI (MCF7 breast) of 10 µM and a GI50 (UO-31 renal) of 2.84 µM. It also gave a TGI (UO-31 renal) of 12.6 µM, a GI50 (HS 578T breast) of 3.1 µM and a TGI (HS 578T breast) of 21.6 µM. The GI50 (RXF 393 renal) was 2.31 µM, the TGI (RXF 393 renal) was 6.48 µM and the GI50 (SNB-75 CNS) was 3.42 µM. The TGI (SNB-75 CNS) was 18.9 µM, the GI50 (EKVX NSCLC) was 2.45 µM and the TGI (EKVX NSCLC) was 8.32 µM. It also gave a GI50 (NCI-H522 lung) of 1.81 µM, a TGI (NCI-H522 lung) of 4.51 µM and a GI50 (786-0 renal) of 2.7 µM. It also gave a TGI (786-0 renal) of 9.79 µM, a GI50 (NCI/ADR-RES ovarian) of 3.12 µM and a TGI (NCI/ADR-RES ovarian) of 14 µM. For the same compound, the GI50 (TK-10 renal) was 3.43 µM, the TGI (TK-10 renal) was 9.9 µM and the GI50 (CCRF-CEM leukemia) was 3.53 µM. The TGI (CCRF-CEM leukemia) was over 100 µM, the GI50 (SF-268 CNS) was 5.82 µM and the TGI (SF-268 CNS) was 48.6 µM. The GI50 (COLO 205 colon) was 1.92 µM, the TGI (COLO 205 colon) was 3.52 µM and the GI50 (HCT-116 colon) was 1.98 µM. For the same compound, the TGI (HCT-116 colon) was 4.01 µM, the GI50 (MDA-MB-435) was 2.89 µM and the TGI (MDA-MB-435) was 8.95 µM. It also gave a GI50 (UACC-257 melanoma) of 2.36 µM and a TGI (UACC-257 melanoma) of 6.96 µM.

Source: PubChem BioAssay (NCI)
